The results in this text go back to PubChem BioAssay (NCI).

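Five concentrations, 48 hours, 96-well plates. GI50: concentration for 50% inhibition of growth. Definition used: TGI = concentration required for complete inhibition of growth.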

Some test systems named below: MOLT-4 leukemia; U251 CNS; HOP-92 NSCLC; M14 melanoma; OVCAR-5 ovarian; LOX IMVI melanoma; ACHN renal; SK-OV-3 ovarian; HT29 colon.
Assay in all cases: NCI tumour cell line growth inhibition, 48 h

As for `C1=C(c2ccccc2)SC=C(c2ccccc2)S1`, the TGI in the test on MOLT-4 leukemia, in the test on U251 CNS, with HOP-92 NSCLC, in the test on M14 melanoma, in the test with OVCAR-5 ovarian and in the test on LOX IMVI melanoma was more than 100 µM throughout. The values for the TGI in the test on ACHN renal, in the test with SK-OV-3 ovarian and in the test with HT29 colon were more than 100 µM, more than 100 µM and 75.1 µM, respectively.
With `Cc1[nH]nc2c1C(=O)C=C(N(CCO)c1ccccc1)C2=O`, the TGI with MOLT-4 leukemia, in the test on U251 CNS, in the test with HOP-92 NSCLC, in the test on M14 melanoma, in the test with LOX IMVI melanoma and in the test with SK-OV-3 ovarian was more than 100 µM throughout. The compound further displayed a TGI in the test with HT29 colon of more than 100 µM.
Consider `CCCCN(CCCC)C(=O)C(=O)C(C)C(=O)CC` (stereo not given), for which the TGI with MOLT-4 leukemia, with U251 CNS, in the test on HOP-92 NSCLC, with M14 melanoma, in the test with OVCAR-5 ovarian and in the test on LOX IMVI melanoma was more than 100 µM in each case. In addition, the TGI with ACHN renal, in the test with SK-OV-3 ovarian and in the test on HT29 colon was more than 100 µM throughout.
Turning to `CCCCCCNc1nc(N2CCOCC2)c2[nH]c(NCCCCCC)nc2n1`, the GI50 was 1.61 µM in the test with U251 CNS; 1.84 µM in the test on M14 melanoma; 1.61 µM in the test on OVCAR-5 ovarian; 1.48 µM in the test with LOX IMVI melanoma; 1.6 µM in the test on ACHN renal; 1.73 µM in the test with SK-OV-3 ovarian. For the same compound, the TGI with U251 CNS was 3.18 µM; in the test with M14 melanoma, 3.39 µM; in the test on OVCAR-5 ovarian it was 2.96 µM; in the test with LOX IMVI melanoma, 2.8 µM; in the test with ACHN renal, 2.95 µM; in the test with SK-OV-3 ovarian, 3.14 µM.
Turning to `CC1CCP(=O)(c2ccccc2)CC1` (stereo not given), the TGI in the test with MOLT-4 leukemia, in the test with U251 CNS, in the test on M14 melanoma, in the test with OVCAR-5 ovarian, in the test on LOX IMVI melanoma and in the test with ACHN renal was more than 100 µM each time. The TGI in the test on SK-OV-3 ovarian and in the test on HT29 colon was more than 100 µM in each case.
As for `COc1ccc(C(=O)C(C(=O)C(=O)Nc2nccs2)c2ccc(OC)cc2)cc1` (stereo not given), the TGI with MOLT-4 leukemia, in the test with U251 CNS, in the test on HOP-92 NSCLC, in the test on M14 melanoma, in the test on OVCAR-5 ovarian and in the test with LOX IMVI melanoma was more than 100 µM each time. Besides, the TGI with ACHN renal, in the test with SK-OV-3 ovarian and in the test on HT29 colon was more than 100 µM in each case.
For the compound `N#C/C(N)=C(\C#N)N=Cc1csc2ccccc12`, the GI50 with MOLT-4 leukemia was 4.08 µM; in the test with U251 CNS, 20.2 µM; with HOP-92 NSCLC it was 24.1 µM; with M14 melanoma, 46.8 µM; in the test on OVCAR-5 ovarian, 67.1 µM; with LOX IMVI melanoma, 26.3 µM. In addition, the values for the GI50 with ACHN renal, with SK-OV-3 ovarian and with HT29 colon were 29.9 µM, 20.2 µM and 22.2 µM, respectively. Also, the TGI in the test on MOLT-4 leukemia was more than 100 µM; in the test on U251 CNS, 45.3 µM; with HOP-92 NSCLC, more than 100 µM; in the test on M14 melanoma, more than 100 µM; in the test with OVCAR-5 ovarian, more than 100 µM; in the test on LOX IMVI melanoma, 66.3 µM. Further, the TGI in the test on ACHN renal was more than 100 µM; in the test with SK-OV-3 ovarian, 46 µM; in the test on HT29 colon, more than 100 µM.
With `O=C(O)/C(=C\c1ccccc1Cl)S(=O)(=O)c1ccccc1`, the TGI in the test with MOLT-4 leukemia, in the test with U251 CNS, in the test with HOP-92 NSCLC, with M14 melanoma, with OVCAR-5 ovarian and with LOX IMVI melanoma was more than 100 µM each time. Moreover, the TGI in the test with ACHN renal, with SK-OV-3 ovarian and with HT29 colon was more than 100 µM in each case.
Take `N[C@@H]1CCCC[C@@H]1N.O=C([O-])CN(CP(=O)([O-])[O-])CP(=O)([O-])[O-].[Pt+2]`: the GI50 is 82.5 µM in the test with MOLT-4 leukemia; more than 100 µM in the test with U251 CNS; more than 100 µM in the test with HOP-92 NSCLC; more than 100 µM in the test on M14 melanoma; more than 100 µM with LOX IMVI melanoma; more than 100 µM with ACHN renal. Also, the GI50 in the test with SK-OV-3 ovarian and with HT29 colon was more than 100 µM in each case. In addition, the TGI with MOLT-4 leukemia, in the test on U251 CNS, in the test on HOP-92 NSCLC, with M14 melanoma, in the test with LOX IMVI melanoma and in the test on ACHN renal was more than 100 µM each time. In addition, the TGI in the test on SK-OV-3 ovarian and in the test with HT29 colon was more than 100 µM in each case.
As to `Cc1cc(N(CCC#N)CCC#N)ccc1N=Nc1cccc(Cl)c1`, the TGI with U251 CNS, with HOP-92 NSCLC, in the test on M14 melanoma, in the test on OVCAR-5 ovarian, with ACHN renal and in the test on SK-OV-3 ovarian was more than 100 µM throughout. Further, in the test with HT29 colon, the TGI was more than 100 µM.
Consider `Oc1c(I)cc(-c2nc3ccccc3s2)cc1CN(Cc1ccccn1)Cc1ccccn1`, for which the GI50 with MOLT-4 leukemia was 0.327 µM; with U251 CNS, 0.267 µM; in the test on HOP-92 NSCLC, 0.273 µM; in the test on M14 melanoma it was 0.357 µM; in the test with OVCAR-5 ovarian, 0.928 µM; in the test on LOX IMVI melanoma it was 0.305 µM. For the same compound, the results for the GI50 with ACHN renal, in the test on SK-OV-3 ovarian and in the test on HT29 colon were 0.286 µM, 0.437 µM and 0.668 µM, respectively. Also, the TGI in the test with MOLT-4 leukemia is more than 100 µM; in the test with U251 CNS, 12.9 µM; with HOP-92 NSCLC it was 5.45 µM; with M14 melanoma it was 13.1 µM; with OVCAR-5 ovarian, 53.2 µM; in the test on LOX IMVI melanoma it was 1.38 µM. Besides, the TGI was 3.37 µM with ACHN renal, more than 100 µM in the test with SK-OV-3 ovarian and 27.6 µM in the test on HT29 colon.
For `C=C1CC2(CCCC3(CC(=C)C(=O)O3)C2(C)C)OC1=O` (stereo not given), the TGI in the test with MOLT-4 leukemia came to 1.03 µM; with U251 CNS, 4.56 µM; with HOP-92 NSCLC, 19.3 µM; with M14 melanoma, 8.58 µM; in the test on OVCAR-5 ovarian, 3.33 µM; in the test on LOX IMVI melanoma it was 3.77 µM. Also, the figures for the TGI with ACHN renal, with SK-OV-3 ovarian and in the test on HT29 colon were 2.4 µM, 46.2 µM and 15 µM, respectively.
For the compound `BrC1=CC=C2NCCCCCCN=C3C=CC(Br)=CC=C3NCCCCCCN=C2C=C1`, the TGI with MOLT-4 leukemia, in the test with U251 CNS, with HOP-92 NSCLC, in the test with M14 melanoma, in the test on OVCAR-5 ovarian and in the test with LOX IMVI melanoma was more than 25.5 µM throughout. The TGI in the test on ACHN renal, in the test with SK-OV-3 ovarian and in the test with HT29 colon was more than 25.5 µM in each case.
